# Data taken from patent publication US6664249B1, “Bicyclic vasopressin agonists” (Ferring BV, priority 1999, dated 2003).
# Test system: Brattleboro rat
# Test: urine output in Brattleboro rats (model of vasopressin deficiency)
# Assay type: in vivo
# Conditions: 1 mg/kg p.o. in methylcellulose, vs control animals
# Protocol: The Brattleboro rat is a recognised model for vasopressin deficiency (for a review see F D Grant, “Genetic models of vasopressin deficiency”, Exp. Physiol. 85, 203S-209S, 2000). […] Compounds of the invention were administered to Brattleboro rats (0.1-10 mg/kg p.o. in methylcellulose. Urine was collected hourly and volumes were compared with control animals. Animals had free access to food and water throughout the experiment. Representative results are given in the Table. Results for Desmopressin are given for comparison.
row,Structure (SMILES),% inhibition of urine output (at 1 hour)
1,"CCOC(=O)CNC(=O)NCc1ccc(C(=O)N2CCCCc3ccccc32)cc1C [Example 5, 1-(4-[N-(2-Ethoxy-2-oxoethylcarbamoyl)aminomethyl]-3-methylbenzoyl)-2,3,4,5-tetrahydro-1H-1-benzazepine]",74%
2,"Cc1cc(C(=O)N2CCCCc3ccccc32)ccc1CNC(=O)NCC(=O)O [Example 6, 1-(4-[N-(Carboxymethylcarbamoyl)aminomethyl]-3-methylbenzoyl)-2,3,4,5-tetrahydro-1H-1-benzazepine]",38%
3,"Cc1cc(C(=O)N2CCCCc3ccccc32)ccc1CNC(=O)NCC(=O)N(C)C [Example 8, 1-(4-[N-(2-Dimethylamino-2-oxoethylcarbamoyl)aminomethyl]-3-methylbenzoyl)-2,3,4,5-tetrahydro-1H-1-benzazepine]",45-82%
4,"Cc1cc(C(=O)N2CCCCc3ccccc32)ccc1CNC(=O)NCC(=O)N1CCCCC1 [Example 25, 1-(3-methyl-4-[N-(2-(1-piperidino)-2-oxoethylcarbamoyl)aminomethyl]benzoyl)-2,3,4,5-tetrahydro-1H-1-benzazepine]",58%
